In patent US20070092879A1, “Fluoresence-based dna primase assays” (AstraZeneca AB, priority 2003, published 2007):

Target: E. coli DNA primase (Escherichia coli, UniProt P0ABS5)
Experiment: Fluorescence-based E. coli DNA primase HTS assay in the presence of helicase (SYBR Green II)
Type: biochemical
Settings: for inhibition of primase activity: 50 mM salt
Method: The reaction was carried out on a Costar 384-well black plate. The reaction volume was 30 μl. The final concentrations in the reaction were 50 mM Tris-HCl, pH 7.5, 10 mM Mg(OAc)2, 10 mM DTT, 25 mM potassium glutamate, 0.003% Brij-35, 200 nM DNA, 25 nM helicase, 75 nM E. coli DNA primase, 200 μM ATP and 200 μM GTP. To perform the HTS assay, 2 μl of compound/DMSO solution or aqueous DMSO solution was incubated with 23 μl of a reaction premix at room temperature for 15 min. The reaction premix was a 1.3× concentrated reaction solution without NTPs. After the incubation, 5 μl of a substrate solution with 1.2 mM ATP and 1.2 mM GTP were added to initiate the reaction. The reaction was incubated at room temperature for 40 min. Then 25 μl of a 30×SYBR Green II solution with 1.2 M NaCl was added and the fluorescence was measured (excitation at 485 nm, emission at 535 nm).
A dideoxy NTP was used as a positive inhibitory control for the primase reaction. […] Since ddATP competes with NTP (ATP in this case) in the primase reaction, the IC50 value was dependent on the substrate (ATP) concentration. Under the HTS conditions used, the IC50 of ddATP was 10 μM

Sequence of E. coli DNA primase (P0ABS5 whole entry): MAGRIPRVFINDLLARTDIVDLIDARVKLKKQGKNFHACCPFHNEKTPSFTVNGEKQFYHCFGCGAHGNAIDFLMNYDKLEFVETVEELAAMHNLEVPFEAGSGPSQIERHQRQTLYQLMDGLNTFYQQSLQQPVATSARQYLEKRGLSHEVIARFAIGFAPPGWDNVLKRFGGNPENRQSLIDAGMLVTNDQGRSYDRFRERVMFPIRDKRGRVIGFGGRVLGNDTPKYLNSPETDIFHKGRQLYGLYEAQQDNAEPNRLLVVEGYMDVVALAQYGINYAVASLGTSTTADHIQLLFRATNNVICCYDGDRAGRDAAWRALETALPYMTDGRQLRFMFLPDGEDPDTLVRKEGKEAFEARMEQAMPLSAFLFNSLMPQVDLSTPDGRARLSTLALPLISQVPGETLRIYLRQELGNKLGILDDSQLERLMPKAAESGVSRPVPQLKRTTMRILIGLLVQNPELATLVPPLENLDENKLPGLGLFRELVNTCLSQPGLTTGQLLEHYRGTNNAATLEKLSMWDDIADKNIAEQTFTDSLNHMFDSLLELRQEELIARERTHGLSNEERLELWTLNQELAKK

“5′-CTCTCTCTCTCTCTCTCTCTCTCTCTCTCTCTCTGCAAAGC-3′ [DNA7]” was tested, and the Km (DNA template concentration dependence, FIG. 5, read-out: apparent Km for DNA) was 0.105 µM.

With [Cl-].[K+] [KCl] the “inhibition of primase activity” value was “approximately 50%”.

With [Cl-].[Na+] [NaCl] the “inhibition of primase activity” value was “approximately 50%”.

Nc1ncnc2c1ncn2[C@H]1CC[C@@H](COP(=O)(O)OP(=O)(O)OP(=O)(O)O)O1 [ddATP] gave an IC50 (HTS conditions, 200 μM ATP and 200 μM GTP, IC50 dependent on ATP concentration (competes with ATP), read-out: IC50 of inhibition of primase activity) of 10 µM.
